The values that follow come from patent publication US20240148895A1, “ANTIBODY-DRUG CONJUGATE” (Eisai R&D Management Co., Ltd., priority 2022, published 2024).

The assay concerns AsPC-1/Cas9 cell line (human pancreatic cancer cell line AsPC-1). In words: AsPC-1/Cas9 growth inhibition assay. The note with it: 5 days culture, CellTiter Glo 2.0, read-out: IC50 (Absolute IC50, 50% inhibition of cell growth). The class given is cell-based. How it is done: Human pancreatic cancer cell line AsPC-1 (ATCC Number CRL1682) was infected with Edit-R Lentiviral hCMV-Blast-Cas9 Nuclease Particle (Dharmacon, VCAS10124) in the presence of 8 μg/ml of Hexadimethrine bromide (Sigma, H9268), and after 24 hours it was exposed to 10 μg/ml of Blastcidin S (Thermo, A11139) to remove the uninfected cells, thereby establishing an AsPC-1/Cas9 cell line. The cells were maintenance cultured in a 5% CO2 incubator (37° C.) using RPMI-1640 (FujiFilm-Wako Pure Chemical Industries) containing 10% fetal bovine serum (FBS: SIGMA 173012) and penicillin/streptomycin (FujiFilm-Wako Pure Chemical Industries) (hereunder referred to simply as “culture medium”). After adding 25 μL of AsPC-1/Cas9 cell suspension prepared to 3.2×10^4 cells/mL using culture medium into each well of a 384-well plate (Greiner 781091), the cells were cultured overnight in a 5% CO2 incubator (37° C.). On the following day, 25 μL of the test substance diluted with culture medium was added to each well, and culturing was continued for 5 days in a 5% CO2 incubator (37° C.). Next, 25 μL of CellTiter Glo™ 2.0 (Promega) was added to each well, and the plate contents were mixed for 5 minutes using a plate mixer. The plate was stationed for 10 minutes at room temperature while shielded from light, and then the luminous intensity was measured with an ENVISION™ (Perkin-Elmer). The luminescence value of the wells with addition of test substance was determined as a relative value, with 100% as the luminescence value of the wells with cells but without addition of the test substance and 0% as the luminescence value of the wells without cells. A plot of test substance concentration against luminescence value % approximated a 4-parameter logistic curve, and the test substance concentration necessary for 50% inhibition of cell growth (Absolute IC50) was calculated, and is shown in Table 10. In Table 10, the antibodies listed as “CEACAM6_#84.7” are the anti-CEACAM6 antibody of Example 301-1, the antibodies listed as “003” are the anti-folate receptor α antibody of Example 301-2, and the antibodies listed as “345A12” are the anti-mesothelin antibody of Example 301-3.
According the same method as in the AsPC-1/Cas9 growth inhibition assay described in Example 313 above, the test substance concentration necessary for 50% inhibition of cell growth (Absolute IC50) in the ADC described in Example 318 was calculated and is shown in Table 12.
In general terms: Cellular ATP, detected with luciferase, serves as a proxy for viable cell number.

On to “2-Cyclopropoxy-2-(2-(4-(((2S,5R)-2,5-dimethylpiperazin-1-yl)methyl)piperidin-1-yl)-6-(4-methoxy-1-methyl-6-oxo-1,6-dihydropyridin-3-yl)quinazolin-4-yl)-2-phenylethyl methyl(2-(methylamino)ethyl)carbamate [Example 34]”, for which the IC50 is 0.083 nM.

On to “4-(2-(4-Amino-4-methyl-[1,4′-bipiperidin]-1′-yl)-4-(1-cyclopropoxy-2-hydroxy-1-phenylethyl)quinazolin-6-yl)-6-methyl-1,6-dihydro-7H-pyrrolo[2,3-c]pyridin-7-one [Example 27]”, for which the IC50 was less than 0.015 nM. The same measure for `CCn1c(=O)nc(C(CO)(OC)c2ccccc2)c2cc(-c3cc(C)c(=O)n(C)c3)ccc21` (racemic) [Example 17, 6-(1,5-Dimethyl-6-oxo-1,6-dihydropyridin-3-yl)-1-ethyl-4-(2-hydroxy-1-methoxy-1-phenylethyl)quinazoline-2(1H)-one]: 0.04 nM.

On to `Cc1cc(-c2ccc3nc(NS(C)(=O)=O)nc(C(CO)(CC4CC4)c4ccccn4)c3c2)cn(C)c1=O` (stereo not shown) [Example 5, N-(4-(1-Cyclopropyl-3-hydroxy-2-(pyridin-2-yl)propan-2-yl)-6-(1,5-dimethyl-6-oxo-1,6-dihydropyridin-3-yl)quinazolin-2-yl)methanesulfonamide], for which the IC50 is 0.035 nM. In the case of `Cc1cc(-c2ccc3nc(N=S(C)(C)=O)nc(C(CO)(CC4CCOCC4)c4ccccc4)c3c2)cn(C)c1=O` (stereo not shown) [Example 6], the IC50 was found to be 0.029 nM.

Turning to `Cc1cc(-c2ccc3nc(N=S(C)(C)=O)nc(C(CO)(CC(C)C)c4ccccc4)c3c2)cn(C)c1=O` (stereo not shown) [Example 7, 5-(2-((Dimethyl(oxo)-16-sulfanylidene)amino)-4-(1-hydroxy-4-methyl-2-phenylpentan-2-yl)quinazolin-6-yl)-1,3-dimethylpyridin-2(1H)-one], the IC50 turned out to be 0.051 nM. `Cc1cc(-c2ccc3nc(NS(C)(=O)=O)nc(C(CO)(CC4CCC4)c4ccccc4)c3c2)cn(C)c1=O` (stereo not shown) [Example 8, N-(4-(1-Cyclobutyl-3-hydroxy-2-phenylpropan-2-yl)-6-(1,5-dimethyl-6-oxo-1,6-dihydropyridin-3-yl)quinazolin-2-yl)methanesulfonamide]: the IC50 was found to be 0.043 nM. Turning to `Cc1cc(-c2ccc3cc(N=S(C)(C)=O)nc(C(CO)(OC4CC4)c4ccccc4)c3c2)cn(C)c1=O` (stereo not shown) [Example 9, 5-(1-(1-Cyclopropoxy-2-hydroxy-1-phenylethyl)-3-((dimethyl(oxo)-16-sulfanylidene)amino)isoquinolin-7-yl)-1,3-dimethylpyridin-2(1H)-one], the IC50 was 0.075 nM. Take `Cc1cc(-c2ccc3nc(NC(=O)N4CC(O)C4)nc(C(CO)(OC4CC4)c4ccccc4)c3c2)cn(C)c1=O` (stereo not shown) [Example 10, N-(4-(1-Cyclopropoxy-2-hydroxy-1-phenylethyl)-6-(1,5-dimethyl-6-oxo-1,6-dihydropyridin-3-yl)quinazolin-2-yl)-3-hydroxyazetidine-1-carboxamide]: the IC50 was determined as 0.036 nM. As for `CCCC(CO)(c1ccccn1)c1[nH]c(=O)cc2ccc(-c3cc(C)c(=O)n(C)c3)cc12` (stereo not shown) [Example 11, 7-(1,5-Dimethyl-6-oxo-1,6-dihydropyridin-3-yl)-1-(1-hydroxy-2-(pyridin-2-yl)pentan-2-yl)isoquinoline-3(2H)-one], the concentration for half-maximal inhibition (IC50) came out at 0.039 nM. With `CCOCCC(CO)(c1ccccn1)c1nc(N)nc2ccc(-c3cc(C)c(=O)n(C)c3)cc12` (stereo not shown) [Example 12, 5-(2-Amino-4-(4-ethoxy-1-hydroxy-2-(pyridin-2-yl)butan-2-yl)quinazolin-6-yl)-1,3-dimethylpyridin-2(1H)-one], the IC50 is 0.038 nM. As to `Cc1cc(-c2ccc3nc(N=S(C)(C)=O)nc(C(CO)(OC4CCC4)c4ccccc4)c3c2)cn(C)c1=O` (stereo not shown) [Example 13, 5-(4-(1-Cyclobutoxy-2-hydroxy-1-phenylethyl)-2-((dimethyl (oxo)-16-sulfanylidene)amino)quinazolin-6-yl)-1,3-dimethylpyridin-2(1H)-one], the IC50 is 0.043 nM. For the compound `CN1CCC(Oc2nc(C(CO)(OC3CC3)c3ccccc3)c3cc(-c4cn(C)c(=O)c5c4COC5)ccc3n2)CC1` (stereo not shown) [Example 14, 7-(4-(1-Cyclopropoxy-2-hydroxy-1-phenylethyl)-2-((1-methylpiperidin-4-yl)oxy)quinazolin-6-yl)-5-methyl-3,5-dihydrofuro[3,4-c]pyridine-4(1H)-one], the IC50 was 0.038 nM. On to `Cc1cc(-c2ccc3nc(N)nc(C(CO)(OC4CC4)c4cccs4)c3c2)cn(C)c1=O` (stereo not shown) [Example 15, 5-(2-Amino-4-(1-cyclopropoxy-2-hydroxy-1-(thiophen-2-yl)ethyl)quinazolin-6-yl)-1,3-dimethylpyridin-2(1H)-one], for which the IC50 came out at 0.039 nM. With `CCOC(CO)(c1ccccc1)c1nc(C(N)=O)cc2ccc(-c3cc(C)c(=O)n(C)c3)cc12` (stereo not shown) [Example 16, 7-(1,5-Dimethyl-6-oxo-1,6-dihydropyridin-3-yl)-1-(1-ethoxy-2-hydroxy-1-phenylethyl)isoquinoline-3-carboxamide], the IC50 is 0.035 nM. On to `Cc1cc(-c2ccc3nc(CNS(C)(=O)=O)nc(C(CO)(OC4CC4)c4ccccc4)c3c2)cn(C)c1=O` (stereo not shown) [Example 18, N-((4-(1-Cyclopropoxy-2-hydroxy-1-phenylethyl)-6-(1,5-dimethyl-6-oxo-1,6-dihydropyridin-3-yl)quinazolin-2-yl)methyl)methanesulfonamide], for which the IC50 worked out at 0.047 nM. For `Cc1cc(-c2ccc3nc(N=S(C)(C)=O)nc(C(CO)(OC(C)C)c4ccccc4)c3c2)cn(C)c1=O` (stereo not shown) [Example 19, 5-(2-((Dimethyl(oxo)-16-sulfanylidene)amino)-4-(2-hydroxy-1-isopropoxy-1-phenylethyl)quinazolin-6-yl)-1,3-dimethylpyridin-2(1H)-one] the value was 0.031 nM; for `Cc1cc(-c2ccc3nc(N)nc(C(CO)(CC4CC4)c4cccnc4)c3c2)cn(C)c1=O` (stereo not shown) [Example 20, 5-(2-Amino-4-(1-cyclopropyl-3-hydroxy-2-(pyridin-3-yl)propan-2-yl)quinazolin-6-yl)-1,3-dimethylpyridin-2(1H)-one], 0.035 nM; for `COc1ccc(CC(CO)(c2ccccn2)c2nc(N=S(C)(C)=O)nc3ccc(-c4cc(C)c(=O)n(C)c4)cc23)cc1F` (stereo not shown) [Example 21, 5-(2-((Dimethyl(oxo)-16-sulfanylidene)amino)-4-(1-(3-fluoro-4-methoxyphenyl)-3-hydroxy-2-(pyridin-2-yl)propan-2-yl)quinazolin-6-yl)-1,3-dimethylpyridin-2(1H)-one], 0.061 nM. For `COCCC(CO)(c1ccccc1)c1nc(N=S(C)(C)=O)nc2ccc(-c3cc(C)c(=O)n(C)c3)cc12` (stereo not shown) [Example 22, 5-(2-((Dimethyl(oxo)-16-sulfanylidene)amino)-4-(1-hydroxy-4-methoxy-2-phenylbutan-2-yl)quinazolin-6-yl)-1,3-dimethylpyridin-2(1H)-one] the value was 1.6 nM; for `Cc1cc(-c2ccc3nc(N=S(C)(C)=O)nc(C(CO)(Cc4ccccc4)c4ccccc4)c3c2)cn(C)c1=O` (stereo not shown) [Example 23, 5-(2-((Dimethyl(oxo)-16-sulfanylidene)amino)-4-(1-hydroxy-2,3-diphenylpropan-2-yl)quinazolin-6-yl)-1,3-dimethylpyridin-2(1H)-one], 0.034 nM; for `Cc1cc(-c2ccc3nc(N)nc(C(CO)(Cc4ccccc4)c4ncccn4)c3c2)cn(C)c1=O` (stereo not shown) [Example 24, 5-(2-Amino-4-(1-hydroxy-3-phenyl-2-(pyrimidin-2-yl)propan-2-yl)quinazolin-6-yl)-1,3-dimethylpyridin-2(1H)-one], 0.043 nM.

Broadly, the IC50 is the concentration at which inhibition is half-maximal.
